Holding throughout (type): functional
For test [1], the system named is Mus musculus. In words: Compound was tested for its ability to inhibit pentylenetetrazole-induced seizures in male CF-1 mice by i.c.v. administration.
Test [2] is filed under the species Rattus norvegicus. In words: Inhibition of kainic acid (KA)-induced currents in rat brain mRNA-injected xenopus oocytes.
The species entered for test [3] is Rattus norvegicus. Put plainly: The compound was tested for its ability to inhibit AMPA-induced currents in rat brain mRNA-injected xenopus oocytes.
The test system of test [4] is Mus musculus. In words: Compound was tested for its ability to inhibit pentylenetetrazole-induced seizures in male CF-1 mice by i.p. administration. Conditions: ip.
Test [5] is filed under the species Rattus norvegicus. Put plainly: Compound was tested against kainic acid-induced neuronal damage in rat striatum, as assessed by preventing reduction in choline acetyltransferase (ChAT) activity. Also noted: scale not given: the % may be the effect or the level left.
The species named for test [6] is Rattus norvegicus. Put plainly: Compound was tested against kainic acid-induced neuronal damage in rat striatum, as assessed by preventing reduction in glutamate decarboxylase GAD activity. Further details: scale not given: the % may be the effect or the level left.

Molecules are shown by their SMILES.

In ChEMBL document CHEMBL1126350, “Phosphonoethylphenylalanine derivatives as novel antagonists of non-NMDA ionotropic glutamate receptors” (Bioorg Med Chem Lett, 1992) one finds ED50, Ki and Activity data, which are given here for 20 compounds.

In general, Ki refers to a measure of affinity in units of concentration, obtained from inhibition or displacement.

In test [1], `O=C(O)C1CN(CCCP(=O)(O)O)CCN1` (stereo not given) registered an ED50 of 0.15 nmol.

As for `NC(Cc1cc(Br)ccc1CCP(=O)(O)O)C(=O)O` (stereo not given), the Ki worked out at 10 µM in test [2] and 61 µM in test [3].

As for `Cc1cc(C)c(CCP(=O)(O)O)c(C[C@H](N)C(=O)O)c1`, the ED50 in test [1] is 0.3 nmol; in test [4] it was 111 mg/kg.

`Cc1ccc(CCP(=O)(O)O)c(C[C@H](N)C(=O)O)c1`: the ED50 in test [1] turned out to be 0.58 nmol; in test [4], 124 mg/kg.

In the case of `NC(Cc1cc(C2CCCCC2)ccc1CCP(=O)(O)O)C(=O)O` (stereo not given), the Ki in test [2] turned out to be 139 µM.

For `Cc1ccc(CCP(=O)(O)O)c(CC(N)C(=O)O)c1` (stereo not given), the Ki is 11 µM in test [2] and 13 µM in test [3].

In the case of `Cc1cccc(CCP(=O)(O)O)c1CC(N)C(=O)O` (stereo not given), the Ki in test [2] is more than 100 µM.

`NC(Cc1cc(Cl)ccc1CCP(=O)(O)O)C(=O)O` (stereo not given): the Ki in test [2] stood at 15 µM; in test [3] it was 48 µM.

As for `CC(C)(C)c1ccc(CCP(=O)(O)O)c(CC(N)C(=O)O)c1` (stereo not given), the Ki in test [2] amounted to 29 µM.

In turn, `Cc1cccc(CC(N)C(=O)O)c1CCP(=O)(O)O` (stereo not given) had an inhibitory constant (Ki) in test [2] of more than 100 µM.

As to `CCc1ccc(CCP(=O)(O)O)c(CC(N)C(=O)O)c1` (stereo not given), the Ki in test [2] stood at 17 µM; in test [3] it was 50 µM.

With `Cc1ccc(CC(N)C(=O)O)c(CCP(=O)(O)O)c1` (stereo not given), the Ki in test [2] was more than 100 µM.

`COc1ccc(CCP(=O)(O)O)c(CC(N)C(=O)O)c1` (stereo not given): in test [2], the affinity, expressed as Ki, was 67 µM.

Take `NC(Cc1cccc(-c2ccccc2)c1CCP(=O)(O)O)C(=O)O` (stereo not given): the inhibitory constant (Ki) in test [2] turned out to be 83 µM.

Consider `NC(Cc1cc(F)ccc1CCP(=O)(O)O)C(=O)O` (stereo not given), for which the Ki was 68 µM in test [2] and 167 µM in test [3].

Take `Cc1cc(C)c(CCP(=O)(O)O)c(CC(N)C(=O)O)c1` (stereo not given): the values for the Ki in test [2] and in test [3] were 12 µM and 39 µM, respectively.

`NC(Cc1cc(-c2ccccc2)ccc1CCP(=O)(O)O)C(=O)O` (stereo not given): affinity in test [2] was put at a Ki of 76 µM.

As for `NC(Cc1cc(C(F)(F)F)ccc1CCP(=O)(O)O)C(=O)O` (stereo not given), in test [2], the affinity corresponds to a Ki of 10 µM.

Turning to `NC(Cc1cc(I)ccc1CCP(=O)(O)O)C(=O)O` (stereo not given), the Ki in test [2] was found to be 3.6 µM; in test [3] it was 16 µM.

Consider `C=C(C)[C@H]1CN[C@H](C(=O)O)[C@H]1CC(=O)O` [KAINIC ACID], for which the Activity in test [5] amounted to 32%; in test [6], 45%.
